Tests used:
[1] = Neurotoxicity (paresthesias, ataxia, SARA scores); format: in vivo, healthy adult volunteers; set-up: key to SARA score: Nose–finger—right / SARA score: Nose–finger—left: 0: no tremor; 0.5: tremor with an amplitude < 2 cm (unilateral); 1: tremor with an amplitude < 2 cm (bilateral); key to SARA score: Fast alternating hand movements—right / SARA score: Fast alternating hand movements—left / SARA score: Heel–shin slide—right / SARA score: Heel–shin slide—left / SARA score: Sitting / SARA score: Speech disturbance: 0: normal; key to SARA score: Finger chase—right / SARA score: Finger chase—left: 0: normal, no dysmetria; 0.5: dysmetria, under/overshooting target < 5 cm (unilateral); 1: dysmetria, under/overshooting target < 5 cm (bilateral); key to Cumulative SARA Score / SARA score: Gait / SARA score: Stance: normal, able to stand in tandem for >10s; able to stand with feet together without sway, but not in tandem for >10s; 2: able to stand with feet together for >10s, but only with sway; conditions: for Cumulative SARA Score / SARA score: Fast alternating hand movements—left / SARA score: Fast alternating hand movements—right / SARA score: Finger chase—left / SARA score: Finger chase—right / SARA score: Gait / SARA score: Heel–shin slide—left / SARA score: Heel–shin slide—right / SARA score: Nose–finger—left / SARA score: Nose–finger—right / SARA score: Sitting / SARA score: Speech disturbance / SARA score: Stance: highest score for any visit
Experimental: (§1) Safety assessments for TEAEs were conducted, including physical examinations (including neurological evaluations), […], vital signs, clinical laboratory tests, selected biomarkers for acute kidney injury (see section on kidney biomarkers), spirometry, and ECG measurements (see Supplementary Data S5 and S6 for clinical laboratory evaluations and schedule of events). If symptoms of ataxia were present, SARA (Scale for the Assessment and Rating of Ataxia, according to Schmitz-Hübsch et al.) assessment forms were completed to assess their severity.

[2] = Treatment-emergent adverse events, safety population; format: in vivo, healthy adult volunteers; conditions: for Ataxia / Blood creatinine increased / Dizziness / Glycosuria / Proteinuria / Red blood cells urine / Renal and urinary disorders / White blood cells urine positive / Blood calcium decreased / Headache / Investigations / Lymphocyte count decreased / Nervous system disorders / Number of Subjects with at Least One Adverse Event / Paresthesia / Prothrombin time prolonged / Respiratory, thoracic and mediastinal disorders / Cough: TEAE, subjects n (%)
Experimental: as §1

colistimethate sodium [CMS]
ataxia reported ([1]; Cohort 1): no ataxia | Cumulative SARA Score ([1]; subject 20012078): 1 | SARA score: Fast alternating hand movements—left ([1]; subject 20012078): 0 | SARA score: Fast alternating hand movements—right ([1]; subject 20012078): 0 | SARA score: Finger chase—left ([1]; subject 20012078): 0 | SARA score: Finger chase—right ([1]; subject 20012078): 0 | SARA score: Gait ([1]; subject 20012078): 1 | SARA score: Heel–shin slide—left ([1]; subject 20012078): 0 | SARA score: Heel–shin slide—right ([1]; subject 20012078): 0 | SARA score: Nose–finger—left ([1]; subject 20012078): 0 | SARA score: Nose–finger—right ([1]; subject 20012078): 0 | SARA score: Sitting ([1]; subject 20012078): 0 | SARA score: Speech disturbance ([1]; subject 20012078): 0 | SARA score: Stance ([1]; subject 20012078): 0 | SARA score: Fast alternating hand movements—left ([1]; subject 20012079): 0 | SARA score: Fast alternating hand movements—right ([1]; subject 20012079): 0 | SARA score: Finger chase—left ([1]; subject 20012079): 0.5 | SARA score: Finger chase—right ([1]; subject 20012079): 0 | SARA score: Gait ([1]; subject 20012079): 2 | SARA score: Heel–shin slide—left ([1]; subject 20012079): 0 | SARA score: Heel–shin slide—right ([1]; subject 20012079): 0 | SARA score: Nose–finger—left ([1]; subject 20012079): 0 | SARA score: Nose–finger—right ([1]; subject 20012079): 0 | SARA score: Sitting ([1]; subject 20012079): 0 | SARA score: Speech disturbance ([1]; subject 20012079): 0 | SARA score: Stance ([1]; subject 20012079): 2 | SARA score: Fast alternating hand movements—left ([1]; subject 20012080): 0 | SARA score: Fast alternating hand movements—right ([1]; subject 20012080): 0 | SARA score: Finger chase—left ([1]; subject 20012080): 0 | SARA score: Finger chase—right ([1]; subject 20012080): 0 | SARA score: Gait ([1]; subject 20012080): 3 | SARA score: Heel–shin slide—left ([1]; subject 20012080): 0 | SARA score: Heel–shin slide—right ([1]; subject 20012080): 0 | SARA score: Nose–finger—left ([1]; subject 20012080): 0.5 | SARA score: Nose–finger—right ([1]; subject 20012080): 0.5 | SARA score: Sitting ([1]; subject 20012080): 0 | SARA score: Speech disturbance ([1]; subject 20012080): 0 | SARA score: Stance ([1]; subject 20012080): 2 | SARA score: Fast alternating hand movements—left ([1]; subject 20012081): 0 | SARA score: Fast alternating hand movements—right ([1]; subject 20012081): 0 | SARA score: Finger chase—left ([1]; subject 20012081): 0 | SARA score: Finger chase—right ([1]; subject 20012081): 0.5 | SARA score: Gait ([1]; subject 20012081): 1 | SARA score: Heel–shin slide—left ([1]; subject 20012081): 0 | SARA score: Heel–shin slide—right ([1]; subject 20012081): 0 | SARA score: Nose–finger—left ([1]; subject 20012081): 0 | SARA score: Nose–finger—right ([1]; subject 20012081): 0 | SARA score: Sitting ([1]; subject 20012081): 0 | SARA score: Speech disturbance ([1]; subject 20012081): 0 | SARA score: Stance ([1]; subject 20012081): 0 | Cumulative SARA Score ([1]; subject 20012082): 2 | SARA score: Fast alternating hand movements—left ([1]; subject 20012082): 0 | SARA score: Fast alternating hand movements—right ([1]; subject 20012082): 0 | SARA score: Finger chase—left ([1]; subject 20012082): 0 | SARA score: Finger chase—right ([1]; subject 20012082): 0 | SARA score: Gait ([1]; subject 20012082): 1 | SARA score: Heel–shin slide—left ([1]; subject 20012082): 0 | SARA score: Heel–shin slide—right ([1]; subject 20012082): 0 | SARA score: Nose–finger—left ([1]; subject 20012082): 0 | SARA score: Nose–finger—right ([1]; subject 20012082): 0 | SARA score: Sitting ([1]; subject 20012082): 0 | SARA score: Speech disturbance ([1]; subject 20012082): 0 | SARA score: Stance ([1]; subject 20012082): 1 | Ataxia ([2]; Cohort 1 (N = 9)): 0 | Blood creatinine increased ([2]; Cohort 1 (N = 9)): 0 | Dizziness ([2]; Cohort 1 (N = 9)): 0 | Glycosuria ([2]; Cohort 1 (N = 9)): 0 | Proteinuria ([2]; Cohort 1 (N = 9)): 1 (11.1%) | Red blood cells urine ([2]; Cohort 1 (N = 9)): 0 | Renal and urinary disorders ([2]; Cohort 1 (N = 9)): 1 (11.1%) | White blood cells urine positive ([2]; Cohort 1 (N = 9)): 0 | Blood calcium decreased ([2]; Cohort 2 (N = 10)): 0 | Blood creatinine increased ([2]; Cohort 2 (N = 10)): 1 (10.0%) | Glycosuria ([2]; Cohort 2 (N = 10)): 0 | Headache ([2]; Cohort 2 (N = 10)): 5 (50.0%) | Investigations ([2]; Cohort 2 (N = 10)): 6 (60.0%) | Lymphocyte count decreased ([2]; Cohort 2 (N = 10)): 1 (10.0%) | Nervous system disorders ([2]; Cohort 2 (N = 10)): 10 (100.0%) | Number of Subjects with at Least One Adverse Event ([2]; Cohort 2 (N = 10)): 10 (100.0%) | Paresthesia ([2]; Cohort 2 (N = 10)): 10 (100.0%) | Prothrombin time prolonged ([2]; Cohort 2 (N = 10)): 3 (30.0%) | Red blood cells urine ([2]; Cohort 2 (N = 10)): 1 (10.0%) | Respiratory, thoracic and mediastinal disorders ([2]; Cohort 2 (N = 10)): 3 (30.0%) | Ataxia ([2]; Cohort 3 (N = 12)): 10 (83.3%) | Blood calcium decreased ([2]; Cohort 3 (N = 12)): 4 (33.3%) | Cough ([2]; Cohort 3 (N = 12)): 2 (16.7%) | Dizziness ([2]; Cohort 3 (N = 12)): 2 (16.7%) | Headache ([2]; Cohort 3 (N = 12)): 4 (33.3%) | Investigations ([2]; Cohort 3 (N = 12)): 11 (91.7%) | Lymphocyte count decreased ([2]; Cohort 3 (N = 12)): 1 (8.3%) | Nervous system disorders ([2]; Cohort 3 (N = 12)): 11 (91.7%) | Number of Subjects with at Least One Adverse Event ([2]; Cohort 3 (N = 12)): 11 (91.7%) | Paresthesia ([2]; Cohort 3 (N = 12)): 9 (75.0%) | Proteinuria ([2]; Cohort 3 (N = 12)): 7 (58.3%) | Prothrombin time prolonged ([2]; Cohort 3 (N = 12)): 1 (8.3%) | Renal and urinary disorders ([2]; Cohort 3 (N = 12)): 7 (58.3%) | Respiratory, thoracic and mediastinal disorders ([2]; Cohort 3 (N = 12)): 2 (16.7%) | White blood cells urine positive ([2]; Cohort 3 (N = 12)): 7 (58.3%) | Ataxia ([2]; Overall (N = 31)): 17 (54.8%) | Blood calcium decreased ([2]; Overall (N = 31)): 6 (19.4%) | Blood creatinine increased ([2]; Overall (N = 31)): 5 (16.1%) | Cough ([2]; Overall (N = 31)): 6 (19.4%) | Dizziness ([2]; Overall (N = 31)): 5 (16.1%) | Glycosuria ([2]; Overall (N = 31)): 5 (16.1%) | Headache ([2]; Overall (N = 31)): 14 (45.2%) | Investigations ([2]; Overall (N = 31)): 24 (77.4%) | Lymphocyte count decreased ([2]; Overall (N = 31)): 4 (12.9%) | Nervous system disorders ([2]; Overall (N = 31)): 27 (87.1%) | Number of Subjects with at Least One Adverse Event ([2]; Overall (N = 31)): 30 (96.8%) | Paresthesia ([2]; Overall (N = 31)): 24 (77.4%) | Proteinuria ([2]; Overall (N = 31)): 10 (32.3%) | Prothrombin time prolonged ([2]; Overall (N = 31)): 7 (22.6%) | Red blood cells urine ([2]; Overall (N = 31)): 4 (12.9%) | Renal and urinary disorders ([2]; Overall (N = 31)): 10 (32.3%) | Respiratory, thoracic and mediastinal disorders ([2]; Overall (N = 31)): 8 (25.8%) | White blood cells urine positive ([2]; Overall (N = 31)): 9 (29.0%) | AEs that occurred during Period 1 ([2]; Period 1 (IV), of all AEs): 138/287 | total AEs reported ([2]; overall): 287 | serious TEAE ([2]; resulted in discontinuation of the subject): one serious TEAE of acute kidney injury | deaths ([2]; whole study): no deaths
